# ChEMBL document CHEMBL5032530, “Discovery of Benzocyclic Sulfone Derivatives as Potent CXCR2 Antagonists for Cancer Immunotherapy” (J Med Chem, 2021)
# Biological target: T1, C-X-C chemokine receptor type 2 (Homo sapiens, UniProt P25025)
# T1 sequence (P25025 whole entry): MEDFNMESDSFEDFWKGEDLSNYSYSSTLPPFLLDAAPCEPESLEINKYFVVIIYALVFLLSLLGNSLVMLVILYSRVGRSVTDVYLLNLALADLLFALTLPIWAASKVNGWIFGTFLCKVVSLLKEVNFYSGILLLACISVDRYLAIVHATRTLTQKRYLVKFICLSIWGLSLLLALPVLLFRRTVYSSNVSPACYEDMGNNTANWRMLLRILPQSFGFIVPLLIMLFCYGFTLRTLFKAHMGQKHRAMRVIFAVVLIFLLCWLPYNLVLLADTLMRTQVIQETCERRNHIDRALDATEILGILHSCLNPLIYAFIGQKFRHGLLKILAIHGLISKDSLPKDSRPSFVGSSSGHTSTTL
# Assay: Antagonist activity at human CXCR2 expressed in HEK293 cells assessed as inhibition of CXCL8-induced beta-arrestin recruitment preincubated for 30 mins followed by addition of agonist incubated for 90 mins by beta arrestin assay
# Type: functional, cell-based
row,Structure (SMILES),IC50
1,O=C(Nc1ccccc1C(F)(F)F)Nc1ccc2c(c1O)S(=O)(=O)CCC2,4510 nM
2,Cc1ccc(NC(=O)Nc2ccc3c(c2O)S(=O)(=O)CC=C3)cc1,190 nM
3,O=C(Nc1ccc(Br)cc1)Nc1ccc2c(c1O)S(=O)(=O)CCC2,> 10000 nM
4,O=C(Nc1ccccc1Br)Nc1ccc2c(c1O)S(=O)(=O)CC=C2,49 nM
5,Cc1c(F)cccc1Nc1c(Nc2ccc3c(c2O)S(=O)(=O)CCC3)c(=O)c1=O,1360 nM
6,O=C(Nc1ccccc1Cl)Nc1ccc2c(c1O)S(=O)(=O)CCC2,210 nM
7,Cc1c(F)cccc1NC(=O)Nc1ccc2c(c1O)S(=O)(=O)CCC2=O,420 nM
8,Cc1c(F)cccc1Nc1c(Nc2ccc3c(c2O)S(=O)(=O)CC=C3)c(=O)c1=O,370 nM

# The next lines start with the values.
row,IC50,Structure (SMILES)
1,1600 nM,O=C(Nc1ccccc1C(F)(F)F)Nc1ccc2c(c1O)S(=O)(=O)CC=C2
2,200 nM,O=c1c(Nc2ccccc2Cl)c(Nc2ccc3c(c2O)S(=O)(=O)CC=C3)c1=O
3,2500 nM,O=c1c(Nc2ccc3c(c2O)S(=O)(=O)CC=C3)c(Nc2cccc(Cl)c2Cl)c1=O
4,150 nM,O=c1c(Nc2ccccc2Br)c(Nc2ccc3c(c2O)S(=O)(=O)CCC3)c1=O
5,> 10000 nM,O=C(Nc1ccc(Cl)cc1Cl)Nc1ccc2c(c1O)S(=O)(=O)CCC2
6,19000 nM,O=C(Nc1ccc2c(c1O)S(=O)(=O)CC=C2)Nc1cccc(F)c1Cl
7,320 nM,O=C(Nc1ccccc1F)Nc1ccc2c(c1O)S(=O)(=O)CC=C2
8,3450 nM,O=c1c(Nc2ccc3c(c2O)S(=O)(=O)CCC3)c(Nc2cccc(F)c2Cl)c1=O
9,5920 nM,O=C(Nc1ccc(Cl)cc1Cl)Nc1ccc2c(c1O)S(=O)(=O)CC=C2
